Reference: US7678363B2, “Methods of treating psychiatric conditions comprising administration of muscarinic agents in combination with SSRIs” (priority 2005, dated 2010)
Where a name gives a salt, the structure may show the parent alone.

How the values were obtained:
mGluR2 = mGluR2 (Homo sapiens, UniProt Q14416); settings: antagonist; read-out: IC50 against mGluR2; cited from earlier work
[1] = tested on: Group I and Group III receptors; settings: at sub-mM concentrations; cited from earlier work
mGluR3 = mGluR3 (Homo sapiens, UniProt Q14832); settings: antagonist; read-out: IC50 against mGluR3; cited from earlier work
mGluR3, sequence (Q14832 23-879): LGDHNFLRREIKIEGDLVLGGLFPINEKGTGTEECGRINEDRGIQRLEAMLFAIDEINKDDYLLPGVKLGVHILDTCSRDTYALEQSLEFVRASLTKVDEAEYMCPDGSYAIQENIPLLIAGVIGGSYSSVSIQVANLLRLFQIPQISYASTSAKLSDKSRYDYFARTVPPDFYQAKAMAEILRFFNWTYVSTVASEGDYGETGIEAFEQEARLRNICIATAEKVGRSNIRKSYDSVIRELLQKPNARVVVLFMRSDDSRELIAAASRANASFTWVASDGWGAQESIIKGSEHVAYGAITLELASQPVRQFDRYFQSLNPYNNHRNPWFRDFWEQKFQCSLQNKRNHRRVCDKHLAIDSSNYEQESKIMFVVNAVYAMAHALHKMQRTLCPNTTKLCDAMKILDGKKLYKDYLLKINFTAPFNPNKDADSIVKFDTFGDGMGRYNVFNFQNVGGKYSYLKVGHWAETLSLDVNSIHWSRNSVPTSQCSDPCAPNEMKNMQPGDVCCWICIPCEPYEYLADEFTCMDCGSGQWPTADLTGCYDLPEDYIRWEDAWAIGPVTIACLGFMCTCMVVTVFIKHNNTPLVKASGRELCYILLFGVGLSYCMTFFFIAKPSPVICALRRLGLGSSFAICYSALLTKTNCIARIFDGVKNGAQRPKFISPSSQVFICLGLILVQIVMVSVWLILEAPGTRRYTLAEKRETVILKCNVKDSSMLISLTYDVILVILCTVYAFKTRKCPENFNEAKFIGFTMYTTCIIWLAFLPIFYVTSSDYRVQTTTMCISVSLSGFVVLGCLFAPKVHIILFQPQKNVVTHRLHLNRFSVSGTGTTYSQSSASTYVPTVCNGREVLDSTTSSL

[2] = not told; cited from earlier work
[3] = tested on: Human neural stem cells (hNSCs); test: Neuronal differentiation of human neural stem cells (TUJ-1 staining); format: cell-based; settings: for EC50: read-out: EC50 for neuronal differentiation, agent alone
Method: Mitogen-free test media with 5 μM DHEA served as a positive control for neuronal differentiation, and basal media without growth factors served as a negative control.
The presence of synergy was determined by use of a combination index (CI). […] The CI is a quantitative measure of the nature of drug interactions, comparing the EC50's of two compounds, when each is assayed alone, to the EC50 of each compound when assayed in combination. The combination index (CI) is equal to the following formula: […]
where C1 and C2 are the concentrations of a first and a second compound, respectively, resulting in 50% activity in neuronal differentiation when assayed in combination; and IC1 and IC2 are the concentrations of each compound resulting in 50% activity when assayed independently.

mGlu7 and mGlu8 = settings: at higher concentrations (e.g., above 1 μM); cited from earlier work
[4] = tested on: KA, AMPA, and NMDA iGlu receptors; settings: cited from earlier work
human mGlu3 = human mGlu3 (Homo sapiens, UniProt Q14832); settings: read-out: EC50 against human mGlu3 receptors; agonist, in vitro; cited from earlier work
human mGlu3, sequence (Q14832 23-879): as above

human mGlu2 = human mGlu2 (Homo sapiens, UniProt Q14416); settings: read-out: EC50 against human mGlu2 receptors; agonist, in vitro; cited from earlier work
human mGlu2, sequence (Q14416 19-872): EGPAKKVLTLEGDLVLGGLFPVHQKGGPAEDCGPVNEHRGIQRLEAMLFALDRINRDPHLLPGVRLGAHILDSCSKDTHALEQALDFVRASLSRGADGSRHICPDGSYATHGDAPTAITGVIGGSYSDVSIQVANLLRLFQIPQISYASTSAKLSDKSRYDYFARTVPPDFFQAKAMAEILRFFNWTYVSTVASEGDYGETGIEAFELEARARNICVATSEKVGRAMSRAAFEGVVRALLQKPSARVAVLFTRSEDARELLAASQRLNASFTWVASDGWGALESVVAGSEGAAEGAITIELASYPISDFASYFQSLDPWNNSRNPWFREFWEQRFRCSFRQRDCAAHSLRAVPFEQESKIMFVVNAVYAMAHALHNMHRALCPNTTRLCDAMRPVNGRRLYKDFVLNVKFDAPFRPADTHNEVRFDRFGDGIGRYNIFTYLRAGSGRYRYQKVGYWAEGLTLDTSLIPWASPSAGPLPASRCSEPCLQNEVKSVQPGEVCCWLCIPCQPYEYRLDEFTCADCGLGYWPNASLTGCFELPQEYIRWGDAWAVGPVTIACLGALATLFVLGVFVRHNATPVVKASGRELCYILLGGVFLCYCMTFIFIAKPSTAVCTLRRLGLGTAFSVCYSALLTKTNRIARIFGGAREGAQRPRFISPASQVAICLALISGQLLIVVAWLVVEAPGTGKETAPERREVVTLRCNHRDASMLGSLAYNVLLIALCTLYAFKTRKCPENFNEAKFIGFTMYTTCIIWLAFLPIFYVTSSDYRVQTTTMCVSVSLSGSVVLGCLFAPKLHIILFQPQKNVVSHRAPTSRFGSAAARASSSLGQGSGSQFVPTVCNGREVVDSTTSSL

[5] = tested on: Human neural stem cells (hNSCs); test: cells; settings: Neural stem cell, read-out: EC50 for astrocyte differentiation
[6] = tested on: Human neural stem cells (hNSCs); settings: maximum of curve
[7] = clinical reports; cited from earlier work
[8] = Homo sapiens, Neural stem cell, agent run independently, percentage of neuronal positive control, basal media values subtracted
[9] = agent run independently, percentage of neuronal positive control, basal media values subtracted

mGluR2, sequence (Q14416 19-872): as above

For `NC1(C(=O)O)CCc2cc(P(=O)(O)O)ccc21` (racemic) [APICA, (RS)-1-amino-5-phosphonoindan-1-carboxylic acid], the IC50 (mGluR2) is listed as roughly 30 µM, the “activity against Group I or Group III receptors” value [1] is listed as “no appreciable activity” and the IC50 (mGluR3) is listed as roughly 30 µM.

For `CNC(=O)Oc1ccc2c(c1)[C@]1(C)CCN(C)[C@@H]1N2C` (single isomer, unassigned) [Physostigmine, 1,2,3,3a,8,8a-hexahydro-1,3a,8-trimethyl-, methylcarbamate (ester) or (3aS,8aR)-pyrrolo(2,3-b)indol-5-ol], the blood-brain barrier permeability [2] is given as “capable of crossing the blood-brain barrier”.

`NCC(CC(=O)O)c1ccc(Cl)cc1` (stereo not shown) [Baclofen] gave an EC50 ([3]; Homo sapiens, Neural stem cell) of 3.6 µM.

In the case of `CSc1ccc(C(=O)c2[nH]c(=O)[nH]c2C)cc1` [Enozimone, enoximone], the EC50 [3, 8] is reported as 6.76 µM.

In the case of `N[C@](CC1c2ccccc2Oc2ccccc21)(C(=O)O)[C@H]1C[C@@H]1C(=O)O` [LY341495, (2S)-2-amino-2-(1S,2S-2-carboxycycloprop-1-yl)-3-(xanth-9-yl)propanoic acid], the “activity against mGlu7 and mGlu8” value (mGlu7 and mGlu8) is listed as “antagonist activity” and the “activity against KA, AMPA, and NMDA iGlu receptors” value [4] is listed as “substantially inactive”.

For `N[C@@]1(C(=O)O)CO[C@H]2[C@H](C(=O)O)[C@H]21` [LY379268, (−)-2-Oxa-4-aminobicyclohexane-4,6-dicarboxylic acid], the EC50 (human mGlu3) is given as less than 0.01 µM and the EC50 (human mGlu2) is given as less than 0.01 µM.

In the case of `Clc1ccc2c(c1)N=C(N1CCNCC1)c1ccccc1N2` [N-desmethylclozapine], the neurogenic activity ([3]; in assays as disclosed herein (not specified)) is reported as “highly neurogenic”.

In the case of `COC(=O)C(c1ccccc1)C1CCCCN1` (stereo not shown) [Ritalin, Methylphenidate hydrochloride], the EC50 ([3]; Homo sapiens, Neural stem cell) is reported as 3.5 µM.

In the case of `CN(CCOc1ccc(CC2SC(=O)NC2=O)cc1)c1ccccn1` (stereo not shown) [Rosiglitazone, rosiglitazone], the EC50 [3, 8] is reported as 0.94 µM.

In the case of `Nc1c2c(nc3ccccc13)CCCC2` [Tacrine, tetrahydroaminoacridine], the EC50 [3, 8] is reported as 8 µM.

For `O=C1CC2(CCCC2)CC(=O)N1CCCCN1CCN(c2ncccn2)CC1` [buspirone], the EC50 [5] was 5.7 µM, the EC50 ([3]; Homo sapiens, Neural stem cell) was 8.4 µM and the “maximum astrocyte differentiation, % of the positive control” value [6] was 60%.

With `C[C@H](CS)C(=O)N1CCC[C@H]1C(=O)O` [captopril] the EC50 [3, 8] was 3.78 µM and the EC50 [3, 9] was 2 µM.

For `COc1cc2c(cc1OC)C(=O)C(CC1CCN(Cc3ccccc3)CC1)C2` (stereo not shown) [donepezil, 2,3-dihydro-5,6-dimethoxy-2-((1-(phenylmethyl)-4-piperidinyl)methyl)-1H-inden-1-one], the EC50 ([3]; agent run independently, percentage of neuronal positive control, basal media values subtracted, listed as Donepezil) was 2.02 µM and the EC50 [3, 9] was 4.7 µM.

In the case of `CNCCC(Oc1ccc(C(F)(F)F)cc1)c1ccccc1` (stereo not shown) [fluoxetine], the “reported side effects / dose limiting toxicities” value [7] is listed as “sexual dysfunction and (rarely) agitation and increased suicidal thoughts”.
